Results from patent US20160137746A1, “METHODS FOR TREATING HIGH CARDIOVASCULAR RISK PATIENTS WITH HYPERCHOLESTEROLEMIA” (Sanofi Biotechnology, priority 2014, published 2016).

Columns and labels:
[1] = test system: high cardiovascular risk patients with hypercholesterolemia; assay: ODYSSEY COMBO I: lipid efficacy of alirocumab vs placebo, add-on to maximally tolerated statin, 52 weeks; type: in vivo, human
Description: Each of the COMBO studies was randomized, double-blinded, and placebo-controlled.
The primary efficacy endpoint for each study was the difference between treatment arms in the percent change in LDL-C from baseline to Week 24.
Apo, apolipoprotein; HDL-C, high-density lipoprotein cholesterol; ITT, intent-to-treat; LDL-C, low-density lipoprotein cholesterol; Lp(a), lipoprotein (a); TG, triglycerides.
COMBO I was a Phase 3, randomized, double-blind, placebo-controlled, parallel-group, multicenter, 52-week study.
After randomization, patients entered a double-blind treatment period of 52 weeks. […] Patients randomized to placebo received a 1 ml SC placebo injection from an identical auto-injector.
To maintain blinding, the patient and investigator were not informed of the Week 8 LDL-C levels (or any lipid values after randomization); continuation or up-titration of dose occurred in an automated and blinded manner.
Primary analyses of efficacy endpoints were conducted using an ITT approach (based on the ITT population defined above), including all lipid data, regardless of whether the patient was continuing therapy or not. This corresponds to ITT estimands, defined for primary and key secondary endpoints. In addition, analyses were also conducted using an on-treatment approach (based on the mITT population defined above), including lipid data collected during the efficacy treatment period. This corresponds to on-treatment estimands of key secondary endpoints.
With regards to the primary efficacy analysis (ITT approach), the percent change in calculated LDL-C from baseline to Week 24 was analyzed using a mixed-effect model with repeated measures (MMRM) approach. All post-baseline data available from Week 4 to Week 52 analysis windows were used and missing data were accounted for by the MMRM.

[2] = test system: high cardiovascular risk patients with hypercholesterolemia; details: in vivo
Description: Safety parameters (adverse events [including adjudicated cardiovascular events], laboratory data, vital signs, and ECG) were assessed throughout the study.
Safety endpoints assessed in this trial were: cardiovascular events; allergic events; local tolerability at injection site; other adverse events (including hemolytic anemia); laboratory tests: urinalysis, hematology (red blood cell count, red blood cell distribution width (RDW), reticulocyte count, hemoglobin, hematocrit, platelets, white blood cell count with differential blood count), standard chemistry (sodium, potassium, chloride, bicarbonate, calcium, phosphorous, urea nitrogen, creatinine, uric acid, total protein, albumin, LDH, γ Glutamyl Transferase [γGT]), Vitamin E (alpha tocopherol) and other Fat Soluble Vitamins, cortisol (and reflexive ACTH levels, as needed, followed by ACTH stimulation test, as needed), Gonadal Hormone Assessments, Hepatitis C antibody, liver panel (ALT, AST, ALP, and total bilirubin), and CPK; vital signs including heart rate and blood pressure; and 12-lead ECG.
The safety population included all randomized patients who received at least one dose or part of a dose of the double-blind IMP.
Safety analyses were descriptive, performed on the safety population according to treatment actually received. The safety analysis focused on the TEAE period defined as the time from the first dose of double-blind injection up to 70 days after the last double-blind injection. TEAE which developed, worsened or became serious or PCSA occurring after the patient's first injection in the open-label extension study (LTS13643) were not considered in the TEAE period. TEAE period was truncated at the common study cut-off date.

[3] = test system: high cardiovascular risk patients with hypercholesterolemia; assay: ODYSSEY COMBO I: antibodies to alirocumab; type: in vivo, human
Description: In seven of these patients, the antibodies were transient and resolved despite continued alirocumab treatment.

[4] = ITT, Week 24, listed as alirocumab
[5] = Week 24, 'Combo I: Overall Results' paragraph

Substance: Alirocumab: human anti-PCSK9 antibody; HCVR SEQ ID NO:1, LCVR SEQ ID NO:6; CDRs SEQ ID NOs 2/3/4/7/8/10
- Patients with automatic up-titration at Week 12 from 75 mg Q2W to 150 mg Q2W (Week 8 LDL-C ≧70 mg/dL) ([1]; 32 of 191 patients with at least one injection after Week 12): 16.8%
- Patients who reached LDL-C <70 mg/dL despite baseline LDL-C >190 mg/dL ([1]; 'Combo I: Overall Results' paragraph): 32%
- Calculated LDL-C change from baseline, LS mean ([1]; ITT, Week 4): -1.308 mmol/L
- Calculated LDL-C change from baseline, LS mean (SE) ([1]; ITT, Week 4): −50.5 (1.7) mg/dL
- Calculated LDL-C value, LS mean ([1]; ITT, Week 4): 1.327 mmol/L
- Calculated LDL-C value, LS mean (SE) ([1]; ITT, Week 4): 51.2 (1.7) mg/dL
- Calculated LDL-C, LS mean (SE) percent change from baseline ([1]; ITT, Week 4): −50.6 (1.7) %
- Calculated LDL-C change from baseline, LS mean ([1]; ITT, Week 8): -1.372 mmol/L
- Calculated LDL-C change from baseline, LS mean (SE) ([1]; ITT, Week 8): −53.0 (1.7) mg/dL
- Calculated LDL-C value, LS mean ([1]; ITT, Week 8): 1.264 mmol/L
- Calculated LDL-C value, LS mean (SE) ([1]; ITT, Week 8): 48.8 (1.7) mg/dL
- Calculated LDL-C, LS mean (SE) percent change from baseline ([1]; ITT, Week 8): −51.6 (1.7) %
- Apo-B percent change, LS mean difference vs placebo ([1]; ITT, Week 12): placebo of −38.2%
- Calculated LDL-C change from baseline, LS mean ([1]; ITT, Week 12): -1.207 mmol/L
- Calculated LDL-C change from baseline, LS mean (SE) ([1]; ITT, Week 12): −46.6 (2.0) mg/dL
- Calculated LDL-C percent change, LS mean difference vs placebo ([1]; ITT, Week 12): placebo of −47.4%
- Calculated LDL-C value, LS mean ([1]; ITT, Week 12): 1.428 mmol/L
- Calculated LDL-C value, LS mean (SE) ([1]; ITT, Week 12): 55.1 (2.0) mg/dL
- Non-HDL-C percent change, LS mean difference vs placebo ([1]; ITT, Week 12): placebo of −40.1%
- Total-C percent change, LS mean difference vs placebo ([1]; ITT, Week 12): placebo of −26.4%
- Calculated LDL-C, LS mean (SE) percent change from baseline ([1]; ITT, Week 12 (before possible up-titration)): −46.3 (1.8) %
- Calculated LDL-C, LS mean (SE) percent change from baseline ([1]; ITT, Week 12 (before possible up-titration), listed as alirocumab): −46.3%
- Calculated LDL-C percent change, LS mean difference vs placebo ([1]; ITT, Week 12, listed as alirocumab): −47.4%
- Calculated LDL-C change from baseline, LS mean ([1]; ITT, Week 16): -1.345 mmol/L
- Calculated LDL-C change from baseline, LS mean (SE) ([1]; ITT, Week 16): −51.9 (1.9) mg/dL
- Calculated LDL-C value, LS mean ([1]; ITT, Week 16): 1.291 mmol/L
- Calculated LDL-C value, LS mean (SE) ([1]; ITT, Week 16): 49.8 (1.9) mg/dL
- Calculated LDL-C, LS mean (SE) percent change from baseline ([1]; ITT, Week 16): −50.5 (1.9) %
- Apo-B percent change, LS mean difference vs placebo ([1]; ITT, Week 24): placebo of −35.8%
- Calculated LDL-C change from baseline, LS mean ([1]; ITT, Week 24): -1.303 mmol/L
- Calculated LDL-C change from baseline, LS mean (SE) ([1]; ITT, Week 24): −50.3 (2.0) mg/dL
- Calculated LDL-C percent change, LS mean difference (SE) vs placebo ([1]; ITT, Week 24): −45.9 (3.3) %
- Calculated LDL-C value, LS mean ([1]; ITT, Week 24): 1.332 mmol/L
- Calculated LDL-C value, LS mean (SE) ([1]; ITT, Week 24): 51.4 (2.0) mg/dL
- Calculated LDL-C, LS mean (SE) percent change from baseline ([1]; ITT, Week 24): −48.2 (1.9) %
- Calculated LDL-C, LS mean difference (SE) vs placebo, pattern-mixture-model sensitivity analysis ([1]; ITT, Week 24): −42.7 (3.7) %
- HDL-C percent change, LS mean difference vs placebo ([1]; ITT, Week 24): placebo of 7.3%
- Lp(a) percent change, combined estimate for adjusted mean difference vs placebo ([1]; ITT, Week 24): vs. placebo of −14.6%
- Non-HDL-C percent change, LS mean difference vs placebo ([1]; ITT, Week 24): placebo of −37.5%
- Total-C percent change, LS mean difference vs placebo ([1]; ITT, Week 24): placebo of −25%
- Calculated LDL-C percent change, LS mean difference (SE) vs placebo [1, 4]: −45.9%
- Calculated LDL-C, LS mean (SE) percent change from baseline [1, 4]: −48.2%
- Fasting TGs percent change, combined estimate for adjusted mean difference vs placebo ([1]; ITT, Week 24, not statistically significant (p 0.7597)): vs. placebo of −1.2%
- Calculated LDL-C change from baseline, LS mean ([1]; ITT, Week 36): -1.225 mmol/L
- Calculated LDL-C change from baseline, LS mean (SE) ([1]; ITT, Week 36): −47.3 (2.2) mg/dL
- Calculated LDL-C value, LS mean ([1]; ITT, Week 36): 1.411 mmol/L
- Calculated LDL-C value, LS mean (SE) ([1]; ITT, Week 36): 54.5 (2.2) mg/dL
- Calculated LDL-C, LS mean (SE) percent change from baseline ([1]; ITT, Week 36): −44.8 (2.5) %
- Calculated LDL-C change from baseline, LS mean ([1]; ITT, Week 52): -1.153 mmol/L
- Calculated LDL-C change from baseline, LS mean (SE) ([1]; ITT, Week 52): −44.5 (2.4) mg/dL
- Calculated LDL-C percent change, LS mean difference vs placebo ([1]; ITT, Week 52): placebo of −43%
- Calculated LDL-C value, LS mean ([1]; ITT, Week 52): 1.483 mmol/L
- Calculated LDL-C value, LS mean (SE) ([1]; ITT, Week 52): 57.2 (2.4) mg/dL
- Calculated LDL-C, LS mean (SE) percent change from baseline ([1]; ITT, Week 52): −42.5 (2.5) %
- Calculated LDL-C, LS mean (SE) percent change from baseline ([1]; ITT, Week 52, listed as alirocumab): −42.5%
- Calculated LDL-C percent change, LS mean difference vs placebo ([1]; On-treatment, Week 12): placebo of −49.3%
- Apo-B percent change, LS mean difference vs placebo ([1]; On-treatment, Week 24): placebo of −37.5%
- Calculated LDL-C percent change, LS mean difference (SE) vs placebo ([1]; On-treatment, Week 24): −49.9%
- Calculated LDL-C, LS mean (SE) percent change from baseline ([1]; On-treatment, Week 24): −50.7 (1.9) %
- Non-HDL-C percent change, LS mean difference vs placebo ([1]; On-treatment, Week 24): placebo of −40.4%
- Percent LDL-C reduction vs placebo within demographic and patient subgroups ([1]; Week 24, FIG. 5): seen at every level within each subgroup
- Absolute mean decrease from baseline in LDL-C [1, 5]: -90.8 mg/dL
- Patients who achieved LDL-C <100 mg/dL [1, 5]: 57%
- Change in triglyceride levels ([1]; baseline to Week 24): No significant change
- HDL-C percent change from baseline ([1]; baseline to Week 24): 3.5 (1.1) %
- Additional mean LDL-C reduction at week 24 compared with week 12 ([1]; patients with dose increase to 150 mg Q2W at week 12): 22.8%
- TEAE Lower respiratory tract infection (LRTI), % of patients [2]: 3.0% (46)
- TEAE Upper respiratory tract infection (URTI), % of patients [2]: 7.0% (109)
- TEAE Urinary tract infection, % of patients [2]: 5.2% (81)
- TEAEs by System-Organ-Class: Infections and infestations, % of patients [2]: 45.5% (705)
- Effect of anti-alirocumab antibodies on safety and efficacy ([3]; in vivo): no observed effect on safety and efficacy
- Median time to detection of antibodies to alirocumab ([3]; in vivo): 12 weeks
- Antibodies to alirocumab detected at baseline ([3]; patients subsequently randomized to alirocumab (3/197)): 1.5%
- Anti-alirocumab antibody titer ([3]; treatment-emergent positive patients): ≤ 240
